The source made the active and inactive calls. The calls are words filed in the database; no cut-off is given here.
Tests used:
[1] = target: T1, Methylated-DNA--protein-cysteine methyltransferase (Homo sapiens) (UniProt P16455); assay: Tested for the effective dose required to produce 50 percent inactivation of O6-alkylguanine-DNA alkyltransferase in HT-29 cell free extract; Inactive
T1 sequence (whole entry): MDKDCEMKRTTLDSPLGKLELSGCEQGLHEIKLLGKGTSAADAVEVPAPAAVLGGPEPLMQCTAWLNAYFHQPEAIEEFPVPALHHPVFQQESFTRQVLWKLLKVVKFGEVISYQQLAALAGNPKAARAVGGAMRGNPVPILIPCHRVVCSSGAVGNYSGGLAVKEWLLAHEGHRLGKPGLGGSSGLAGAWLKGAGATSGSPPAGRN

[2] = target: T1, Methylated-DNA--protein-cysteine methyltransferase (Homo sapiens); conditions: HT-29
[3] = target: T1, Methylated-DNA--protein-cysteine methyltransferase (Homo sapiens); conditions: HT-29; remark: listed apart in the source

Nc1nc(Oc2ccccc2)c2[nH]cnc2n1
ED50 [1]: inactive

CC12CCC(=O)C=C1CCC1C2CCC2(C)C(OC(=O)Cn3cnc4c(OCc5ccccc5)nc(N)nc43)CCC12 (stereo not given)
ED50 [2]: 0.5 µM | ED50 [3]: 5 µM

C[C@]12CC[C@H]3[C@@H](CCC4CC(=O)CC[C@@]43C)[C@@H]1CC[C@@H]2OC(=O)Cn1cnc2c(OCc3ccccc3)nc(N)nc21 (stereo not given in full)
ED50 [2]: 0.5 µM | ED50 [3]: 4 µM
